Assay results published in PMC11609934, “Exploration and characterization of the antimalarial activity of cyclopropyl carboxamides that target the mitochondrial protein, cytochrome b” (European Journal of Medicinal Chemistry, 2024).

Tests used:
[1] = eLogD (shake-flask, pH 7.4); format: physicochemical; settings: 1-octanol/phosphate buffered saline (1:1, v/v), Shake-flask method
Experimental: eLogD. The LogD (pH 7.4) assay was performed using a miniaturized shake flask method. A solution of a pre-saturated mixture of 1-octanol and phosphate buffered saline (PBS) (1:1, v/v) and the test compound (75 μM) was incubated at 25 °C with constant shaking (850 rpm) for 2 h. After incubation the organic and aqueous phases were separated, and samples of each phase transferred to plate for dilution. The organic phase was diluted to 1000-fold and the aqueous phase was diluted 20-fold. The samples were quantitated using LC-MS/MS. The experiment was carried out in duplicate. Propranolol, amitriptyline, and midazolam were used as reference standards.

[2] = test system: Pf Dd2 strain with an I22L mutation in the Qi site cyt b; test: Cyt b resistant asexual stage assay, Dd2 cyt b(I22L); format: cell-based; settings: Plasmodium falciparum, DD2, 72 h, read-out: Pf cyt b mutant strains EC50 (SD) Dd2 cyt b(I22L)
Experimental: (§1) To determine whether the cyclopropyl carboxamide series specifically targets the Qo site of cyt b, representative analogs W466 (1), W499 (2), and the focal compound here-on referred to as WJM280 (108) were evaluated against drug-resistant parasite strains with mutations in the Qo or Qi site of cyt b. […] These mutations are mapped to a model of cyt b in Fig. 3.
(§2) Cyt b Resistant and ScDHODH Asexual Stage Assays. These assays were conducted as previously described. Briefly, asexual parasite strains indicated in Table 12 were incubated with compound in a dose response format for 72 h. Parasitemia was determined using SYBR-green fluorescence measured by flow cytometry (Thermo Fisher Attune). EC50 values were determined as described for the LDH assay.

[3] = test system: Pf 3D7 3-oxadiazole quinolone resistant strain with a V259L mutation in the Qo site of cyt b; test: Cyt b resistant asexual stage assay, 3D7 cyt b(V259L); format: cell-based, Plasmodium falciparum; settings: for EC50: Plasmodium falciparum, 3D7, 72 h, read-out: Pf cyt b mutant strains EC50 (SD) 3D7 cyt b(V259L)
Experimental: as §1, §2

[4] = test system: Pf Dd2 expressing ScDHODH; test: ScDHODH asexual stage assay; format: cell-based; settings: Plasmodium falciparum, DD2, 72 h, read-out: Dd2 ScDHODH EC50 (SD)
Experimental: DHODH is essential for the function of the mitochondria ETC and pyrimidine biosynthesis. Compounds that inhibit cyt b typically have reduced activity against parasite strains with increased DHODH levels. To support evidence that the cyclopropyl carboxamide series impacts the mitochondrial ETC, selected analogs were evaluated against both the SB1-A6 strain that has a 2-fold amplification and a C276F SNP in PfDHODH [24] and a Dd2 strain that expresses Saccharomyces cerevisiae DHODH (ScDHODH). ScDHODH has low sequence homology to PfDHODH and is ubiquinone-independent in that it uses fumarate instead of mitochondrial coenzyme Q as an electron acceptor and therefore compounds that inhibit the Plasmodium mitochondrial ETC have reduced activity against the ScDHODH parasite strain.
as §2

mitochondrial ETC = test: P. falciparum oxygen consumption rate (OCR) assay (Seahorse XFe96); format: cell-based, Plasmodium falciparum; settings: compounds 5 μM
Experimental: To provide further evidence to support the cyclopropyl carboxamide series targeting cyt b, an oxygen consumption rate (OCR) assay was performed using a Seahorse XFe96 Flux Analyzer. The primary role of the mitochondria ETC is to produce ATP oxidative phosphorylation, and thus the oxygen consumption directly quantifies mitochondrial ETC activity. In this assay, malate, which is a substrate of malate quinone dehydrogenase (MQD), was added to provide a base line of oxygen consumption at approximately 50 pmol/min (Fig. 4). […] Finally, NaN3 was added to inhibit complex IV to bring the OCR back to basal levels.
Fig. 4 P. falciparum oxygen consumption rate (OCR) assay. Data represent the means and SDs of 3 technical replicates. Time points and reagent injections were as follows, 1. First 5 timepoints measured the basal level of malate-dependent OCR; 2. Compounds (5 μM) were injected independently (indicated by arrow), and OCR measured for 8-timepoints; 3. TMPD (a cytochrome c electron donor) was injected, and OCR measured for 5 time points; 4. NaN3 (a complex IV inhibitor) was then added, and OCR measured for 5 time points.
ETC Biosensor Assay. This assay was performed as previously described. Briefly, 3 × 10^8 trophozoite infected RBCs were purified using the SuperMACS II separator (Miltenyi Biotec, Germany). The trophozoite-stage parasites were released from erythrocytes by treating them with 0.05 % (w/v) pre-warmed saponin in phosphate-buffered saline (PBS) at 37 °C for 3 min. The cells were washed with pre-warmed PBS, three times. […] The cells were measured for oxygen consumption rate (OCR) using Seahorse XFe96 flux analyzer (Agilent). The OCR was assessed for five cycles of 20 s mixing, 1 min waiting, 2.5 min measuring to establish baseline OCR before any substrate injections, for eight cycles of 20 s mixing, 1 min waiting followed by 2.5 min measuring after inhibitor injection from port A and for five cycles of 20 s mixing 1 min waiting, 2.5 min measuring after TMPD, and NaN3, injections.

Dd2-B2 = test: 72 h SYBR Green I / MitoTracker flow cytometry assay, Dd2-B2; format: cell-based; settings: Plasmodium falciparum, DD2, 72 h
Experimental: MIR assay.Plasmodium falciparum asexual blood stage (ABS) parasites were cultured at 3 % hematocrit in human O^+ RBCs in RPMI-1640 media, supplemented with 25 mM HEPES, 50 mg/L hypoxanthine, 2 mM L-glutamine, 0.21 % sodium bicarbonate, 0.5 % (wt/vol) AlbuMAXII (Invitrogen) and 10 μg/mL gentamycin, in modular incubator chambers (Billups- Rothenberg) at 5 % O2, 5 % CO2 and 90 % N2 at 37 °C. Dd2 parasites were obtained from T. Wellems (NIAID, NIH). Dd2-B2 is a genetically homogenous line that was cloned from Dd2 by limiting dilution in the Fidock lab. Dd2-Polδ is a line edited in the Fidock Lab to have a hypermutable polymerase. […] Parasite survival was assessed by flow cytometry on an iQue flow cytometer (Sartorius) using SYBR Green and MitoTracker Deep Red FM (Life Technologies) as nuclear stain and vital dyes respectively.

Compound	logD at 2 h [1]	EC50 [2] [nM]	fold reduction in activity against cyt b V259L Qo site mutant compared to the Dd2 parent strain [3] [fold]	EC50 [3] [nM]	EC50 [4] [nM]	effect on malate-dependent oxygen consumption rate (OCR) (mitochondrial ETC)	IC50 (Dd2-B2; read-out: IC50 Dd2-B2) [nM]	IC90 (Dd2-B2; read-out: IC90 Dd2-B2) [nM]
O=C(NC1CC1)c1ccc(CN(Cc2ccc(Cl)cc2Cl)C2CC2)cc1 [W499 (2)]	4.1	49	1.5	165	> 10000	reduced the OCR to the same level as ATQ	112	224
CCCN(Cc1ccc(C(=O)NC2CC2)cc1)Cc1ccc(C(F)(F)F)cc1 [WJM280 (108), N-Cyclopropyl-4-((propyl(4-(trifluoromethyl)benzyl)amino)methyl)benzamide]	5.2	2	2	23	> 10000			
